From patent EP4268823A1, “COMPOUND FOR TREATING NEUROINFLAMMATION” (Universitätsklinikum Hamburg-Eppendorf, priority 2022, dated 2023)

Assays:
[1] = tested on: primary cortical cultures; assay: RealTime-Glo cell viability assay, glutamate excitotoxicity; type: cell-based, mouse; details: G9a-deficient neurons from G9afl/fl;Snap25-Cre mice treated with UNC0642; readout not stated
Method: For primary cortical cultures pregnant C57BL/6J, or G9afl/fl;Snap25-Cre mice were euthanized. To ensure comparability between genotypes, only embryos from heterozygous breeding's were used. Brainstem tissue of each embryo for genotyping was reserved and cortices were isolated, dissociated and cells were plated at a density of 1 × 10^5 cells per 1 cm^2 on poly-D-lysine-coated wells (5 µM Sigma-Aldrich, cat. no. A-003-M). If not stated otherwise, cells were maintained in neurobasal plus medium (supplemented with B27 plus, penicillin, streptomycin and L-glutamine; Gibco, cat. no. A3582901) at 37°C, 5% CO^2 and a relative humidity of 98%, and treated with 1 µM cytarabine (Sigma-Aldrich, cat. no. BP383) at 1 day in vitro (div) to inhibit glial cell proliferation. If no cytarabine was applied cells were maintained in PNBM medium (supplemented with neural cell survival factor, gentamycin and L-glutamine; Lonza). Throughout, cultures after 14-23 div were used for experiments. […]
RealTime-Glo (Promega, cat. no. G9711) MT cell viability substrate and NanoLuc Enzyme was mixed together, added to neuronal cultures and incubated for 5 hours for equilibration of luminescence signal before respective treatments were applied. Luminescence was acquired with a Spark 10M multimode microplate reader (Tecan) at 37°C and 5% CO2 every 30 min over a total time period of 24 hours. […]

[2] = tested on: primary neuronal cultures; assay: Oxidative stress detection with CellROX green reagent after glutamate; type: cell-based, mouse; details: 20 µM glutamate 1 hour, UNC0642 pre-treatment
Method: (§1) For primary cortical cultures pregnant C57BL/6J, or G9afl/fl;Snap25-Cre mice were euthanized. To ensure comparability between genotypes, only embryos from heterozygous breeding's were used. Brainstem tissue of each embryo for genotyping was reserved and cortices were isolated, dissociated and cells were plated at a density of 1 × 10^5 cells per 1 cm^2 on poly-D-lysine-coated wells (5 µM Sigma-Aldrich, cat. no. A-003-M). If not stated otherwise, cells were maintained in neurobasal plus medium (supplemented with B27 plus, penicillin, streptomycin and L-glutamine; Gibco, cat. no. A3582901) at 37°C, 5% CO^2 and a relative humidity of 98%, and treated with 1 µM cytarabine (Sigma-Aldrich, cat. no. BP383) at 1 day in vitro (div) to inhibit glial cell proliferation. If no cytarabine was applied cells were maintained in PNBM medium (supplemented with neural cell survival factor, gentamycin and L-glutamine; Lonza). Throughout, cultures after 14-23 div were used for experiments. G9a inhibitor UNC0642 was used in a concentration of 1 µM and cultures were pre-treated 24 hours before further experimental procedures.
For the detection of oxidative stress in response to glutamate treatment, CellROX green reagent (Thermofisher) was used. […] Immunofluorescence of nuclear CellROX dye was quantified using Fiji (ImageJ).

[3] = tested on: cyclooxygenase-2 (COX-2); assay: COX-2 immunostaining after glutamate stimulation; type: cell-based, mouse; details: glutamate excitotoxicity ± UNC0642
Method: as §1
Immunocytochemistry was performed as described previously (15). […] Immunostainings were analyzed with a Zeiss LSM 700 confocal microscope.

[4] = target: T1, G9a (Mus musculus, UniProt Q9Z148); assay: Flow cytometry of H3K9me2 in spinal cord neuronal nuclei of EAE mice; type: in vivo; details: EAE animals, 5 mg kg-1 UNC0642
T1 construct: UNC0642 pre-treated primary neuronal cultures compared to respective controls; endogenous in cells; host or cells: primary mouse cortical neuronal cultures (C57BL/6J embryos)
T1 sequence (Q9Z148 1-1263): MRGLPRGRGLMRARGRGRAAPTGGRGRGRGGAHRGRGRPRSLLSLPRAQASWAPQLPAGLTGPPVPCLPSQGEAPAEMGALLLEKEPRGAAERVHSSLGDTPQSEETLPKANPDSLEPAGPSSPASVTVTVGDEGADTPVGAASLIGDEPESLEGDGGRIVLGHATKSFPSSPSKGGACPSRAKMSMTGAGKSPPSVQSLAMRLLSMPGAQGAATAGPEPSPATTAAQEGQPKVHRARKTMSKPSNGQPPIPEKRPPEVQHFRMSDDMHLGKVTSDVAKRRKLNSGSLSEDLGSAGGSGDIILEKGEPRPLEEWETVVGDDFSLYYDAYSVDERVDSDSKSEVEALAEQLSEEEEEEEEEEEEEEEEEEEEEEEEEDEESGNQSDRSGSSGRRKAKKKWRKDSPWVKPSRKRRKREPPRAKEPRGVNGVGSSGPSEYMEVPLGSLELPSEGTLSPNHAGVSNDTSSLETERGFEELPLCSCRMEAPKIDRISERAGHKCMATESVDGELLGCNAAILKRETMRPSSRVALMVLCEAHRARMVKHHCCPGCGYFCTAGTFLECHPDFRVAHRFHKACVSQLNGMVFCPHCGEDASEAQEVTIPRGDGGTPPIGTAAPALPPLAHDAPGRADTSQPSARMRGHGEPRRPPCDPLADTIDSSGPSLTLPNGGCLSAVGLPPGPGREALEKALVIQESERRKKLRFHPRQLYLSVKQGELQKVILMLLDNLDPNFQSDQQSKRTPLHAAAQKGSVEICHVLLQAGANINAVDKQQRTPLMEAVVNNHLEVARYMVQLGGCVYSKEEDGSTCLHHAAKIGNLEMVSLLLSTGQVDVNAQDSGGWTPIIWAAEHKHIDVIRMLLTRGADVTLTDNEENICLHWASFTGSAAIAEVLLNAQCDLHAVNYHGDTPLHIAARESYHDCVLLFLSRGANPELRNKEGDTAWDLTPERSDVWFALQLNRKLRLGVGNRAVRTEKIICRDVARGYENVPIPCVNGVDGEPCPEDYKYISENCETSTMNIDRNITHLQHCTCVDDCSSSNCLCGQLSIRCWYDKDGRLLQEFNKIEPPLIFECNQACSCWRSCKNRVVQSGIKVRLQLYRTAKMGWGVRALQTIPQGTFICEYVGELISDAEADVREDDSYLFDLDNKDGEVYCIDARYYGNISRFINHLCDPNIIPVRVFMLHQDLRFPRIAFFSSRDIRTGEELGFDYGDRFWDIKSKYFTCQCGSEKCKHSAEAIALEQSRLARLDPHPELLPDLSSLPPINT

With COc1cc2c(NC3CCN(C(C)C)CC3)nc(N3CCC(F)(F)CC3)nc2cc1OCCCN1CCCC1 [UNC0642, 2-(4,4-difluoropiperidin-1-yl)-6-methoxy-N-[1-(propan-2-yl)piperidin-4-yl]-7-[3-(pyrrolidin-1-yl)propoxy]quinazolin-4-amine] the “additional rescue effect during glutamate stress” value [1] was “no additional rescue effect”, the “generation of ROS (CellROX green)” value [2] was “reduced the generation of ROS close to baseline levels” and the “induction of COX-2-positive cells” value [3] was “almost completely abolished its induction”. The “H3K9me2 levels in neuronal nuclei” value [4] was “complete normalization of H3K9me2 levels”.
